Experiments:
Type in all cases: in vivo
[1] = system: POAAN Poa annua (annual bluegrass); test: Field trial, visual weed control in winter oilseed rape
Procedure: (§1) Multiple small plot research experiments were conducted to evaluate efficacy and tolerance of winter oilseed rape to compositions described herein. Typical small plots (2-4×4-10 meters (m)) were used in growers' fields under natural conditions with normal commercial cultural practices. Backpack sprayers were used to apply all treatments based on unit area. The methyl ester of formula (I) and propyzamide were tested alone and in combination at varying rates. […] Crop stage was at Growth Stage 39-50. Visual crop injury ratings were collected 32, 49, and 74 days after treatment. […] The reported values are means. […] The following abbreviations are used in Tables 2-4: • GERSS Geranium sp. (cranesbill) • POAAN Poa annua (annual bluegrass) • VERSS Veronica sp.

[2] = system: GERSS Geranium sp. (cranesbill); test: as above
Procedure: as §1

[3] = system: VERSS Veronica sp. (speedwell); test: as above
Procedure: as §1

winter oilseed rape = test: Field trial, visual crop injury ratings; conditions: varying rates, crop Growth Stage 39-50, 32, 49, and 74 days after treatment, in each case
Procedure: Multiple small plot research experiments were conducted to evaluate efficacy and tolerance of winter oilseed rape to compositions described herein. Typical small plots (2-4×4-10 meters (m)) were used in growers' fields under natural conditions with normal commercial cultural practices. Backpack sprayers were used to apply all treatments based on unit area. The methyl ester of formula (I) and propyzamide were tested alone and in combination at varying rates. Application water volume was 150 L/ha. Crop stage was at Growth Stage 39-50. Visual crop injury ratings were collected 32, 49, and 74 days after treatment. […] The reported values are means.

[4] = system: CIRAR Cirsium arvense (L.) Scop. (Canada thistle); test: Postemergent herbicidal activity, greenhouse; conditions: foliar, 14 d
Procedure: (§2) Evaluation of Postemergent Herbicidal Activity. Seeds or nutlets of the desired test plant species were planted in Sun Gro Metro-Mix® 360 planting mixture, which typically has a pH of 6.0 to 6.8 and an organic matter content of about 30 percent, in plastic pots with a surface area of 64 square centimeters (cm^2). […] The plants were grown for 7-21 days (d) in a greenhouse with an approximate 15 hour (h) photoperiod which was maintained at about 23-29° C. during the day and 22-28° C. during the night. Nutrients and water were added on a regular basis and supplemental lighting was provided with overhead metal halide 1000-Watt lamps as necessary. The plants were employed for testing when they reached the first or second true leaf stage.
(§3) A weighed amount, determined by the highest rate to be tested, of each test compound was placed in a 25 milliliter (mL) glass vial and was dissolved in 4 mL of a 97:3 volume per volume (v/v) mixture of acetone and dimethyl sulfoxide (DMSO) to obtain concentrated stock solutions. […] The concentrated stock solutions obtained were diluted with 20 mL of an aqueous mixture containing acetone, water, isopropyl alcohol, DMSO, Atplus 411F crop oil concentrate, and Triton® X-155 surfactant in a 48.5:39:10:1.5:1.0:0.02 v/v ratio to obtain spray solutions containing the highest application rates. Additional application rates were obtained by serial dilution of 12 mL of the high rate solution into a solution containing 2 mL of a 97:3 v/v mixture of acetone and DMSO and 10 mL of an aqueous mixture containing acetone, water, isopropyl alcohol, DMSO, Atplus 411F crop oil concentrate, and Triton X-155 surfactant in a 48.5:39:10:1.5:1.0:0.02 v/v ratio to obtain 1/2×, 1/4×, 1/8× and 1/16× rates of the high rate. Compound requirements are based upon a 12 mL application volume at a rate of 187 liters per hectare (L/ha). Formulated compounds were applied to the plant material with an overhead Mandel track sprayer equipped with 8002E nozzles calibrated to deliver 187 L/ha over an application area of 0.503 square meters (m^2) at a spray height of 18 inches (43 cm) above the average plant canopy height. Control plants were sprayed in the same manner with the solvent blank.
(§4) Treatments consisted of the methyl ester of 4-amino-3-chloro-6-(4-chloro-2-fluoro-3-methoxyphenyl)pyridine-2-carboxylic acid (Cmpd 1) as technical grade material and propyzamide (Kerb 50 W) alone and in combination.
(§5) The treated plants and control plants were placed in a greenhouse as described above and watered by subirrigation to prevent wash-off of the test compounds. After 14 d, the condition of the test plants as compared with that of the untreated plants was determined visually and scored on a scale of 0 to 100 percent where 0 corresponds to no injury and 100 corresponds to complete kill.
(§6) Colby's equation was used to determine the herbicidal effects expected from the mixtures (Colby, S. R. Calculation of the synergistic and antagonistic response of herbicide combinations. Weeds 1967, 15, 20-22). More specifically, the following equation was used to calculate the expected activity of mixtures containing two active ingredients, A and B: Expected=A+B−(A×B/100) A=observed efficacy of active ingredient A at the same concentration as used in the mixture; B=observed efficacy of active ingredient B at the same concentration as used in the mixture.

[5] = system: STEME Stellaria media (L.) Vill. (common chickweed); test: Postemergent herbicidal activity, greenhouse; conditions: foliar, 14 d
Procedure: as §2, §3, §4, §5, §6

[6] = system: AMARE Amaranthus retroflexus L. (redroot pigweed); test: Postemergent herbicidal activity, greenhouse; conditions: foliar, 14 d
Procedure: as §2, §3, §4, §5, §6

[7] = system: BRSNW Brassica napus (winter oilseed rape); test: Postemergent herbicidal activity, greenhouse; conditions: foliar, 14 d
Procedure: as §2, §3, §4, §5, §6

[8] = system: GLXMA Glycine max (volunteer soybean); test: Postemergent herbicidal activity, greenhouse; conditions: foliar, 14 d
Procedure: as §2, §3, §4, §5, §6

Structure (SMILES): COC(=O)c1nc(-c2ccc(Cl)c(OC)c2F)cc(N)c1Cl [Cmpd I, methyl ester of 4-amino-3-chloro-6-(4-chloro-2-fluoro-3-methoxyphenyl)pyridine-2-carboxylic acid]
- % control rated visually, ob (observed) ([1]; Cmpd I 1.25 g ae/ha, 32 DAAA): 7.5%
- % control rated visually, ob (observed) ([1]; Cmpd I 1.25 g ae/ha, 58 DAAA): 11.3%
- % control rated visually, ob (observed) ([1]; Cmpd I 1.25 g ae/ha, 80 DAAA): 16.3%
- % control rated visually, ob (observed) ([1]; Cmpd I 2.5 g ae/ha, 32 DAAA): 10.0%
- % control rated visually, ob (observed) ([1]; Cmpd I 2.5 g ae/ha, 58 DAAA): 15.0%
- % control rated visually, ob (observed) ([1]; Cmpd I 2.5 g ae/ha, 80 DAAA): 15.0%
- % control rated visually, ob (observed) ([1]; Cmpd I 5 g ae/ha, 32 DAAA): 6.3%
- % control rated visually, ob (observed) ([1]; Cmpd I 5 g ae/ha, 58 DAAA): 12.5%
- % control rated visually, ob (observed) ([1]; Cmpd I 5 g ae/ha, 80 DAAA): 6.3%
- % control rated visually, ob (observed) ([1]; Cmpd I 7.5 g ae/ha, 32 DAAA): 28.8%
- % control rated visually, ob (observed) ([1]; Cmpd I 7.5 g ae/ha, 58 DAAA): 28.8%
- % control rated visually, ob (observed) ([1]; Cmpd I 7.5 g ae/ha, 80 DAAA): 18.8%
- % control rated visually, ob (observed) ([2]; Cmpd I 1.25 g ae/ha, 32 DAAA): 42.5%
- % control rated visually, ob (observed) ([2]; Cmpd I 1.25 g ae/ha, 58 DAAA): 62.5%
- % control rated visually, ob (observed) ([2]; Cmpd I 1.25 g ae/ha, 80 DAAA): 53.8%
- % control rated visually, ob (observed) ([2]; Cmpd I 2.5 g ae/ha, 32 DAAA): 42.5%
- % control rated visually, ob (observed) ([2]; Cmpd I 2.5 g ae/ha, 58 DAAA): 57.5%
- % control rated visually, ob (observed) ([2]; Cmpd I 2.5 g ae/ha, 80 DAAA): 67.5%
- % control rated visually, ob (observed) ([2]; Cmpd I 5 g ae/ha, 32 DAAA): 89.3%
- % control rated visually, ob (observed) ([2]; Cmpd I 5 g ae/ha, 58 DAAA): 77.5%
- % control rated visually, ob (observed) ([2]; Cmpd I 5 g ae/ha, 80 DAAA): 69.5%
- % control rated visually, ob (observed) ([2]; Cmpd I 7.5 g ae/ha, 32 DAAA): 91.3%
- % control rated visually, ob (observed) ([2]; Cmpd I 7.5 g ae/ha, 58 DAAA): 91.3%
- % control rated visually, ob (observed) ([2]; Cmpd I 7.5 g ae/ha, 80 DAAA): 99.8%
- % control rated visually, ob (observed) ([3]; Cmpd I 1.25 g ae/ha, 32 DAAA): 10.0%
- % control rated visually, ob (observed) ([3]; Cmpd I 1.25 g ae/ha, 80 DAAA): 80.0%
- % control rated visually, ob (observed) ([3]; Cmpd I 2.5 g ae/ha, 32 DAAA): 26.3%
- % control rated visually, ob (observed) ([3]; Cmpd I 2.5 g ae/ha, 80 DAAA): 97.5%
- % control rated visually, ob (observed) ([3]; Cmpd I 5 g ae/ha, 32 DAAA): 45.0%
- % control rated visually, ob (observed) ([3]; Cmpd I 5 g ae/ha, 80 DAAA): 100.0%
- % control rated visually, ob (observed) ([3]; Cmpd I 7.5 g ae/ha, 32 DAAA): 81.3%
- % control rated visually, ob (observed) ([3]; Cmpd I 7.5 g ae/ha, 80 DAAA): 100.0%
- Visual crop injury rating (winter oilseed rape): 0 % injury
- % control rated visually, ob (observed) ([4]; Cmpd I 2.5 g ae/ha): 47%
- % control rated visually, ob (observed) ([4]; Cmpd I 5 g ae/ha): 53%
- % control rated visually, ob (observed) ([4]; Cmpd I 10 g ae/ha): 65%
- % control rated visually, ob (observed) ([5]; Cmpd I 2.5 g ae/ha): 50%
- % control rated visually, ob (observed) ([5]; Cmpd I 5 g ae/ha): 57%
- % control rated visually, ob (observed) ([5]; Cmpd I 10 g ae/ha): 72%
- % control rated visually, ob (observed) ([6]; Cmpd I 2.5 g ae/ha): 50%
- % control rated visually, ob (observed) ([6]; Cmpd I 5 g ae/ha): 58%
- % control rated visually, ob (observed) ([6]; Cmpd I 10 g ae/ha): 77%
- % control rated visually, ob (observed) ([7]; Cmpd I 2.5 g ae/ha): 0%
- % control rated visually, ob (observed) ([7]; Cmpd I 5 g ae/ha): 0%
- % control rated visually, ob (observed) ([7]; Cmpd I 10 g ae/ha): 10%
- % control rated visually, ob (observed) ([8]; Cmpd I 2.5 g ae/ha): 80%
- % control rated visually, ob (observed) ([8]; Cmpd I 5 g ae/ha): 87%
- % control rated visually, ob (observed) ([8]; Cmpd I 10 g ae/ha): 100%
